# Data reported in patent US8481551B2, “Gyrase and topoisomerase IV inhibitors” (Vertex Pharmaceuticals Incorporated, priority 2011, dated 2013).
# Counter-ions that a name gives are not always drawn.
# What was measured:
# M. abscessus = experiment: MIC determination procedure for Mycobacterium species (Protocol 4); type: cell-based; settings: Mycobacteroides abscessus
# M. tuberculosis = experiment: as above; type: cell-based
# [1] = Oral range finding toxicity and toxicokinetic study in male cynomolgus monkeys; type: in vivo, Cynomolgus monkeys (Macaca Fascicularis)
# Excerpt: Cynomolgus monkeys (Macaca Fascicularis) were obtained from Primus Bio-Resources Inc. of PinCourt, Quebec, Canada. Cynomolgus monkeys were chosen because they are a non-rodent species that is commonly used for nonclinical toxicity evaluations.
# Eight (2 naive and 6 non-naïve) males were used in the study. The animals were young adults and weighed between 2 to 4 kg at the onset of dosing.
# The first day of dosing was designated as Day 1 of the study. The actual volume administered to each animal was calculated and adjusted based on the most recent body weight of each animal.
# Cage-side clinical signs (ill health, behavioral changes etc.) were recorded at least once daily during the study.
# Body weights were recorded for all animals prior to group assignment and on Days 1 (prior to dosing), 3 and 7 as well as terminally prior to necropsy (fasted).
# Electrocardiograms (bipolar limb leads I, II and III, and augmented unipolar leads aVR, aVL and aVF) were obtained for all monkeys once during the pre-treatment period and again on Day 7 (post-dosing).
# The tracings were assessed for gross changes indicative of cardiac electrical dysfunction. The potential presence of abnormalities involving heart rate (lead II), sinus and atrioventricular rhythm or conductivity were determined. Heart rate, PR interval, QRS duration, QT and QTc intervals values were measured.
# A series of 7 blood samples (approximately 0.5 mL each) were collected from each monkey on Days 1 and 7 at the following time points: predose, 30 minutes and 2, 3, 6, 12 and 24 hours post-dose. […] Tubes were placed on wet ice until ready for processing. […]
# The following parameters were measured on blood samples collected into EDTA anticoagulant: red blood cell count, mean corpuscular hemoglobin (calculated), hematocrit (calculated), mean corpuscular volume, hemoglobin, morphology of cells, white blood cell count, platelet count, white blood cell differential (absolute), reticulocyte (absolute and percentage) and mean corpuscular hemoglobin concentration (calculated).
# Activated partial thromboplastin time and prothrombin time were measured on blood samples collected into citrate anticoagulant.
# The following parameters were measured on blood samples collected into tubes containing clotting activator: a/g ratio (calculated), creatinine, alanine aminotransferase, globulin (calculated), albumin, glucose, alkaline phosphatase, phosphorus (inorganic), aspartate aminotransferase, potassium, bilirubin (total), sodium, calcium, total protein, chloride, triglycerides, cholesterol (total), urea, gamma glutamyltransferase and sorbitol dehydrogenase.
# The following parameters were measured on urine samples: bilirubin, protein, blood, sediment microscopy, color and appearance, specific gravity, glucose, urobilinogen, ketones, volume and pH. […]
# S. aureus TopoIV enzyme = S. aureus TopoIV enzyme (Staphylococcus aureus, UniProt P0C1S7); experiment: DNA Topo IV ATPase assay; type: biochemical; settings: 64 nM enzyme, 30° C., Morrison Equation fit
# Chain of S. aureus TopoIV enzyme (P0C1S7 whole entry): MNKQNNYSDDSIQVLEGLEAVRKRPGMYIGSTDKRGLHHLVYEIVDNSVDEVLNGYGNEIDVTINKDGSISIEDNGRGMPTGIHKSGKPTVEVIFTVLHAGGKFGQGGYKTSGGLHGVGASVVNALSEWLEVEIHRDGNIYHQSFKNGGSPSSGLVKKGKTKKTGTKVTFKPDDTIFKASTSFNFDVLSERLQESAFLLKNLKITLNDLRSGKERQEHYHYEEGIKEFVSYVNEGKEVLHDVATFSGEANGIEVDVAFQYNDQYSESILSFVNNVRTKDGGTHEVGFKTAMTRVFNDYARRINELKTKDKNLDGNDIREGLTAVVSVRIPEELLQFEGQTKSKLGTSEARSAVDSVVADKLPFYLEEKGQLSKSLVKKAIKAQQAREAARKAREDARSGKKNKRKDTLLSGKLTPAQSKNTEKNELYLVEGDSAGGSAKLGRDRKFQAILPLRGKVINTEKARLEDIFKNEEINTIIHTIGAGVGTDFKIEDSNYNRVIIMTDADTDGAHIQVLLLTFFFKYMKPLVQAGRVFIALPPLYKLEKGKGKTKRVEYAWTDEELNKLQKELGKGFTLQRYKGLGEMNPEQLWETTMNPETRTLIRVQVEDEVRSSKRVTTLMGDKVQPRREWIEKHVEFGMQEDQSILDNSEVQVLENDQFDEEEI
# Chain of S. aureus TopoIV enzyme (P0C1U9 whole entry partner): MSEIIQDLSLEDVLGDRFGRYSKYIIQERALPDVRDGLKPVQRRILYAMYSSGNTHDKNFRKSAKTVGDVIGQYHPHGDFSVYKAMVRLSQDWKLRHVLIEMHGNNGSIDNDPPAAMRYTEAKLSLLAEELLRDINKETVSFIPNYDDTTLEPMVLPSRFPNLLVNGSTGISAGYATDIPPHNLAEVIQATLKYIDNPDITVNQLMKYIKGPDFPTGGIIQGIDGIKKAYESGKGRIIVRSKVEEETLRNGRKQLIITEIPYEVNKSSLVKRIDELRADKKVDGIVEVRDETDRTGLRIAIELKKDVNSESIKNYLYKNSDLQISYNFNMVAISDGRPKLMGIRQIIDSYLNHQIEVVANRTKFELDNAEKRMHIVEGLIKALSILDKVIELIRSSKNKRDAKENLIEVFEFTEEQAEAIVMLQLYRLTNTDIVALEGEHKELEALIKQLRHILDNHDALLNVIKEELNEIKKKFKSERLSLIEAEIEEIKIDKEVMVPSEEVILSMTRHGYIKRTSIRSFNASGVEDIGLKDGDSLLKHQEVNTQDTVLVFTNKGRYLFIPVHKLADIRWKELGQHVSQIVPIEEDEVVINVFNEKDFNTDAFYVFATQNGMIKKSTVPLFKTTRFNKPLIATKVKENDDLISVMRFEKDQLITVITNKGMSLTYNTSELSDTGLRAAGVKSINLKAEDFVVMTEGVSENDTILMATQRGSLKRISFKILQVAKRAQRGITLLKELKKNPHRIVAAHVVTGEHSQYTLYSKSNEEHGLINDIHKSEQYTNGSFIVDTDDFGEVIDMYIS
# S. aureus DNA gyrase = S. aureus DNA gyrase (Staphylococcus aureus, UniProt P0A0K8); experiment: DNA gyrase ATPase assay; settings: 90 nM enzyme, 0.9 mM ATP, 30° C.
# Chain of S. aureus DNA gyrase (P20831 whole entry): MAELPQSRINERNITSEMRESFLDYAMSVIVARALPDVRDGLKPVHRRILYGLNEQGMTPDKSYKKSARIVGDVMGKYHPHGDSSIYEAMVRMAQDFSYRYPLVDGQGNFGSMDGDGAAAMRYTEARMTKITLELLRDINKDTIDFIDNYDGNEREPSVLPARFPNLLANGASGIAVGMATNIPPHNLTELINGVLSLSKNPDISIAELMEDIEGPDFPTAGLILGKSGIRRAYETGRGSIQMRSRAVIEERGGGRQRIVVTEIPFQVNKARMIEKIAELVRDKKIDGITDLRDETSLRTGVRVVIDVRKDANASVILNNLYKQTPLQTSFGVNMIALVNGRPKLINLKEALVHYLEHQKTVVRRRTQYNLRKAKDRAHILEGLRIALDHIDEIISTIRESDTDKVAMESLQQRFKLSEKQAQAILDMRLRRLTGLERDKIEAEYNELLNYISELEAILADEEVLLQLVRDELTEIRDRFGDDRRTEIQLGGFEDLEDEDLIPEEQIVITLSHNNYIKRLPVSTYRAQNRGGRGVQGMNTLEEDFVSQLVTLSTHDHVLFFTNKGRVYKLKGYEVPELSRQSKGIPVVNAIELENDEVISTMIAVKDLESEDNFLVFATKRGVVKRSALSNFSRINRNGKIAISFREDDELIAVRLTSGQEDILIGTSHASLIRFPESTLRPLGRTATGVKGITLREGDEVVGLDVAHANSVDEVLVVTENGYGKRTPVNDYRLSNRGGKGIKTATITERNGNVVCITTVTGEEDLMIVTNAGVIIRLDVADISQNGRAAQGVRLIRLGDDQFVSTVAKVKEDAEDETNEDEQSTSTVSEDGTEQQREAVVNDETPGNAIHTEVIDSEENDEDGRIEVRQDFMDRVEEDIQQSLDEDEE
# Chain of S. aureus DNA gyrase (P0A0K8 whole entry): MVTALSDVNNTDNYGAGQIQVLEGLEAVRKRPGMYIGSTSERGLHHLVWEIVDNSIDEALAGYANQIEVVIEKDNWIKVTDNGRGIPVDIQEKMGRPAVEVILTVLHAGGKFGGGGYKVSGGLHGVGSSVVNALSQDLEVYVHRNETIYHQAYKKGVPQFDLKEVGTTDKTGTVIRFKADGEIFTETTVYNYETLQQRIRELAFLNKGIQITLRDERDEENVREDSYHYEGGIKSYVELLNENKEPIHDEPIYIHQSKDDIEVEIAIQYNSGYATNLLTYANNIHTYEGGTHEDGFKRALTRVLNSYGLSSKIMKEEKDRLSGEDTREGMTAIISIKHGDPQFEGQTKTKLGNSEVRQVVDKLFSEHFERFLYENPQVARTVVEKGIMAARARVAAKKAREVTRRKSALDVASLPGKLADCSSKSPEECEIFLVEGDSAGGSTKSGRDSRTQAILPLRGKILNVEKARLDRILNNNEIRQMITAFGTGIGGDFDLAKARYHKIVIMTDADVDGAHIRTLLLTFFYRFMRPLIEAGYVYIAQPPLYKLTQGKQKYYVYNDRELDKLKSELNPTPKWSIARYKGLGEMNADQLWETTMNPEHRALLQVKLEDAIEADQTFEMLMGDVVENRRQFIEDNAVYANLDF
# [2] = Conversion of Compound W to Compound 23 in liver S9 fractions; type: in vitro ADME; settings: hepatic and intestinal S9 fractions from rats, dogs, monkeys and humans
# Method: The incubations were done for 0, 5, 10, 15, 30, 45 or 60 minutes. The formation of Compound 23 was quantified by LC/MS-MS and data were fitted to the Michaelis Menten equation.
smiles,measurement,setting,value
"CCNC(=O)Nc1nc2cc(-c3cnc(C(C)(C)O)nc3)c(F)c([C@H]3CCCO3)c2[nH]1 [Compound 23A, methanesulfonic acid salt of 1-ethyl-3-[6-fluoro-5-[2-(1-hydroxy-1-methyl-ethyl)pyrimidin-5-yl]-7-[(2R)-tetrahydrofuran-2-yl]-1H-benzimidazol-2-yl]urea]",MIC,M. abscessus; M. abscessus BB1,2 µg/mL
same,MIC,M. abscessus; M. abscessus BB2,1 µg/mL
same,MIC,M. abscessus; M. abscessus BB3,0.5 µg/mL
same,MIC,M. abscessus; M. abscessus BB4,2 µg/mL
same,MIC,M. abscessus; M. abscessus BB5,0.5 µg/mL
same,MIC,M. abscessus; M. abscessus BB6,0.5 µg/mL
same,MIC,M. abscessus; M. abscessus BB8,0.5 µg/mL
same,MIC,M. abscessus; M. abscessus LT 949,1 µg/mL
same,MIC,M. abscessus; M. abscessus MC 5812,1 µg/mL
same,MIC,M. abscessus; M. abscessus MC 5901,1 µg/mL
same,MIC,"M. abscessus; M. abscessus MC 5908 (second listing, r109)",1 µg/mL
same,MIC,M. abscessus; M. abscessus MC 5922,0.25 µg/mL
same,MIC,M. abscessus; M. abscessus MC 5931,0.5 µg/mL
same,MIC,M. abscessus; M. abscessus MC 5960,0.5 µg/mL
same,MIC,M. abscessus; M. abscessus MC 6005,1 µg/mL
same,MIC,M. abscessus; M. abscessus MC 6025,0.75 µg/mL
same,MIC,M. abscessus; M. abscessus MC 6111,0.5 µg/mL
same,MIC,M. abscessus; M. abscessus MC 6136,0.5 µg/mL
same,MIC,M. abscessus; M. abscessus MC 6142,0.5 µg/mL
same,MIC,M. abscessus; M. abscessus MC 6153,1 µg/mL
"CCNC(=O)Nc1nc2cc(-c3cnc(C(C)(C)O)nc3)cc([C@H]3CCCO3)c2[nH]1 [Compound 13, methanesulfonic acid salt of 1-ethyl-3-[5-[2-(1-hydroxy-1-methyl-ethyl)pyrimidin-5-yl]-7-[(2R)-tetrahydrofuran-2-yl]-1H-benzimidazol-2-yl]urea]",MIC,"M. tuberculosis; ATCC 25618 / H37Rv, M. tuberculosis H37Rv ATCC 25618",0.37 µg/mL
same,MIC,"M. tuberculosis; ATCC 35801 / ERDMAN, M. tuberculosis Erdman ATCC 35801",0.25 µg/mL
"CCNC(=O)Nc1nc2cc(-c3cnc(C(C)(C)O)nc3)c(F)c([C@H]3CCCO3)c2[nH]1 [Compound 23, 1-ethyl-3-[6-fluoro-5-[2-(1-hydroxy-1-methyl-ethyl)pyrimidin-5-yl]-7-[(2R)-tetrahydrofuran-2-yl]-1H-benzimidazol-2-yl]urea]","clinical signs, body weights, electrocardiography, clinical pathology, organ weights",[1]; doses up to 200 mg/kg/day,"no clinical signs, or changes in body weights, electrocardiography parameters, clinical pathology parameters, or organ weights"
same,macroscopic or microscopic findings,[1]; doses up to 200 mg/kg/day,no macroscopic or microscopic findings
same,no observed effect level (NOEL),"[1]; male Cynomolgus monkeys, oral gavage once per day for 7 days",200 mg/kg/day
same,exposures for different dosage levels,"[1]; male Cynomolgus monkeys, toxicokinetics",dose related
"CCNC(=O)Nc1nc2cc(-c3cnc(C(C)(C)OP(=O)([O-])[O-])nc3)c(F)c([C@H]3CCCO3)c2[nH]1.[Na+].[Na+] [Compound W, disodium (R)-2-(5-(2-(3-ethylureido)-6-fluoro-7-(tetrahydrofuran-2-yl)-1H-benzo[d]imidazol-5-yl)pyrimidin-2-yl)propan-2-yl phosphate]",IC50,S. aureus TopoIV enzyme,150 nM
same,Ki,S. aureus TopoIV enzyme,30 nM
same,IC50,S. aureus DNA gyrase,54 nM
same,conversion of Compound W to Compound 23,[2],rapidly converts to Compound 23
